Test results from the supplement of paper PMC11208160.

Assay: recombinant barcode read abundance after kanamycin selection (control-corrected) (log10(CPM+1)); higher = more efficient recombination; sequences stand for … in AGTGCAGAGAAAATCGGCCAGTTTTCTCTGCCTGCAGTCCGCATGCCGT…AGATTTATGCAGCGGACTGCCTTTCTCCCAAAGTGATAAACCGGACAGTATCATGGACCGGTTTTCCCGGTAATCCGTATTTGCAAGGTTGGTTTCACT; site = the 11-nt target
Procedure, shortened: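 Oligos holding a promoter, target, barcode and the J23119-driven first 104 bases of the bridge RNA were Gibson-cloned into a vector that supplied the other 73 bp plus a T7-inducible recombinase. This library was co-electroporated with a donor plasmid into E. coli. Two replicates went on chloramphenicol/ampicillin LB agar (control) and two on chloramphenicol/ampicillin/kanamycin with 0.1 mM IPTG. Recombination efficiency is read from averaged, control-corrected barcode counts per million at recombinant junctions, reported as log10(CPM+1).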
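Further: IS621 recombinase and bridge RNA in Escherichia coli cells.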

Row | Sequence | recombinant barcode read abundance (log10)
1 | AGGATTCCTTGGGTTCTAACCTGTTGCCT (site AAGATTCCTAG) | 0.171
2 | AGGATTCCTTGGGTTCTAACCTGTTGCCT (site ACGATTCCTAG) | 0.634
3 | AGGATTCCTTGGGTTCTAACCTGTTGCCT (site AGGATTCCTAG) | 1.16
4 | AGGATTCCTTGGGTTCTAACCTGTTGCCT (site ATGATTCCTAG) | 0.158
5 | AGGCCCACTTGGGTTCTAACCTGTTGCTC (site AGGCCCACTGA) | 1.81
6 | AGGCCCACTTGGGTTCTAACCTGTTGCTC (site AGGTCCACTCA) | 0.166
7 | AGGCCGTCTTGGGTTCTAACCTGTTGCGT (site AGGCAGTCTAG) | 0.195
8 | AGGCCGTCTTGGGTTCTAACCTGTTGCGT (site AGGCCGTCTAC) | 2.43
9 | AGGCGCCCTTGGGTTCTAACCTGTTGCAT (site AGGCGCCCTAT) | 1.29
10 | AGGCGCCCTTGGGTTCTAACCTGTTGCAT (site AGGCGCCCTCT) | 0.041
11 | AGGCGCCCTTGGGTTCTAACCTGTTGCAT (site AGGCGCCCTGT) | 0.219
12 | AGGCGCCCTTGGGTTCTAACCTGTTGCAT (site AGGCGCCCTTT) | 0.244
13 | AGGCGTCCTTGGGTTCTAACCTGTTGCCG (site AGGCGTCCTAG) | 0.964
14 | AGGCGTCCTTGGGTTCTAACCTGTTGCCG (site AGGCGTCCTCG) | 1.24
15 | AGGCGTCCTTGGGTTCTAACCTGTTGCCG (site AGGCGTCCTGG) | 0.227
16 | AGGCGTCCTTGGGTTCTAACCTGTTGCCG (site AGGCGTCCTTG) | 0.122
17 | AGGCGTCCTTGGGTTCTAACCTGTTGCCT (site AGGCGTCCTAG) | 1.44
18 | AGGCGTCCTTGGGTTCTAACCTGTTGCCT (site AGGCGTCCTCG) | 0.249
19 | AGGCGTCCTTGGGTTCTAACCTGTTGCCT (site AGGCGTCCTGG) | 1.03
20 | AGGCGTCCTTGGGTTCTAACCTGTTGCCT (site AGGCGTCCTTG) | 0.374
21 | AGGGATCCTTGGGTTCTAACCTGTTGCGT (site AGGGATCCTAC) | 3.09
22 | AGGGATCCTTGGGTTCTAACCTGTTGCGT (site ATGGATCCTAC) | 1.29

Row | Sequence | recombinant barcode read abundance (log10)
23 | AGGGCACCTTGGGTTCTAACCTGTTGCAG (site AGGGCACCTCT) | 1.56
24 | AGGGCACCTTGGGTTCTAACCTGTTGCAG (site CATCGGACTTC) | 0.142
25 | AGGGCGTCTTGGGTTCTAACCTGTTGCCG (site AGGGCATCTAG) | 0.0811
26 | AGGGCGTCTTGGGTTCTAACCTGTTGCCG (site AGGGCGTCTCG) | 1.69
27 | AGGGTCACTTGGGTTCTAACCTGTTGCCT (site AAGGTCACTAG) | 0.274
28 | AGGGTCACTTGGGTTCTAACCTGTTGCCT (site ACGGTCACTAG) | 0.653
29 | AGGGTCACTTGGGTTCTAACCTGTTGCCT (site AGGGTCACTAG) | 2.23
30 | AGGGTCACTTGGGTTCTAACCTGTTGCCT (site ATGGTCACTAG) | 1.06
31 | AGGGTGTCTTGGGTTCTAACCTGTTGCTG (site AGGGTGCCTTA) | 0.105
32 | AGGGTGTCTTGGGTTCTAACCTGTTGCTG (site AGGGTGTCTCA) | 2.55
33 | AGGTACACTTGGGTTCTAACCTGTTGCAC (site AGGTACACTGT) | 2.22
34 | AGGTACACTTGGGTTCTAACCTGTTGCAC (site TTCAGACCTAG) | 0.0924
35 | AGGTCCACTTGGGTTCTAACCTGTTGCTG (site AGGCCCACTGA) | 0.109
36 | AGGTCCACTTGGGTTCTAACCTGTTGCTG (site AGGTCCACTCA) | 1.31
37 | AGGTCCTCTTGGGTTCTAACCTGTTGCCT (site AGGTCCTCTAA) | 1.05
38 | AGGTCCTCTTGGGTTCTAACCTGTTGCCT (site AGGTCCTCTAC) | 0.233
39 | AGGTCCTCTTGGGTTCTAACCTGTTGCCT (site AGGTCCTCTAG) | 2.06
40 | AGGTCCTCTTGGGTTCTAACCTGTTGCCT (site AGGTCCTCTAT) | 0.703
41 | AGGTCTACTTGGGTTCTAACCTGTTGCCA (site AGGTCTACTTG) | 0.6
42 | AGGTCTACTTGGGTTCTAACCTGTTGCCA (site TTAGACCCTCT) | 0.1
43 | AGGTCTACTTGGGTTCTAACCTGTTGCGG (site AGGTCTACTCC) | 1.63
44 | AGGTCTACTTGGGTTCTAACCTGTTGCGG (site GAAAACTCTAG) | 0.0493

Row | Sequence | recombinant barcode read abundance (log10)
45 | AGGTGTCCTTGGGTTCTAACCTGTTGCGA (site AGGTGTCCTTC) | 2.36
46 | AGGTGTCCTTGGGTTCTAACCTGTTGCGA (site TATATATCTAT) | 0.247
47 | AGGTTCCCTTGGGTTCTAACCTGTTGCGG (site AGGTTCCCTCC) | 1.96
48 | AGGTTCCCTTGGGTTCTAACCTGTTGCGG (site CTAGGAACTTA) | 0.11
49 | AGGTTCCCTTGGGTTCTAACCTGTTGCTG (site AGGTTCCCTAA) | 0.154
50 | AGGTTCCCTTGGGTTCTAACCTGTTGCTG (site AGGTTCCCTCA) | 2.46
51 | AGGTTCCCTTGGGTTCTAACCTGTTGCTG (site AGGTTCCCTGA) | 0.142
52 | AGGTTCCCTTGGGTTCTAACCTGTTGCTG (site AGGTTCCCTTA) | 0.358
53 | AGTAAGACTTGGGTTCTAACCTGTTGCGT (site AGTAAGACTAA) | 0.062
54 | AGTAAGACTTGGGTTCTAACCTGTTGCGT (site AGTAAGACTAC) | 2.25
55 | AGTAAGACTTGGGTTCTAACCTGTTGCGT (site AGTAAGACTAG) | 0.482
56 | AGTAAGACTTGGGTTCTAACCTGTTGCGT (site AGTAAGACTAT) | 1.22
57 | AGTAAGACTTGGGTTCTAACCTGTTGCTT (site AGTAAGACTAA) | 0.281
58 | AGTAAGACTTGGGTTCTAACCTGTTGCTT (site AGTAAGACTAC) | 0.354
59 | AGTAAGACTTGGGTTCTAACCTGTTGCTT (site AGTAAGACTAG) | 0.202
60 | AGTAAGACTTGGGTTCTAACCTGTTGCTT (site AGTAAGACTAT) | 0.15
61 | AGTACTACTTGGGTTCTAACCTGTTGCCT (site AATACTACTAG) | 0.0591
62 | AGTACTACTTGGGTTCTAACCTGTTGCCT (site ACTACTACTAG) | 0.0106
63 | AGTACTACTTGGGTTCTAACCTGTTGCCT (site AGTACTACTAG) | 0.25
64 | AGTACTACTTGGGTTCTAACCTGTTGCCT (site ATTACTACTAG) | 0.162
65 | AGTAGGCCTTGGGTTCTAACCTGTTGCGG (site AGTAGGCCTCC) | 1.4
66 | AGTAGGCCTTGGGTTCTAACCTGTTGCGG (site GGTAGGACTCC) | 0.303

Row | Sequence | recombinant barcode read abundance (log10)
67 | AGTAGGGCTTGGGTTCTAACCTGTTGCAG (site AGTAGGGCTCT) | 2.65
68 | AGTAGGGCTTGGGTTCTAACCTGTTGCAG (site CGTAGGGCTCG) | 0.0704
69 | AGTATCGCTTGGGTTCTAACCTGTTGCGG (site AGTATCGCTCC) | 1.11
70 | AGTATCGCTTGGGTTCTAACCTGTTGCGG (site AGTCTCGCTCC) | 0.11
71 | AGTATCGCTTGGGTTCTAACCTGTTGCGG (site AGTGTCGCTCC) | 0.0704
72 | AGTATCGCTTGGGTTCTAACCTGTTGCGG (site AGTTTCGCTCC) | 0.246
73 | AGTATGTCTTGGGTTCTAACCTGTTGCCT (site AGTATGTCTAG) | 1.13
74 | AGTATGTCTTGGGTTCTAACCTGTTGCCT (site CGTATGTCTAG) | 0.184
75 | AGTATGTCTTGGGTTCTAACCTGTTGCCT (site GGTATGTCTAG) | 0.0305
76 | AGTATGTCTTGGGTTCTAACCTGTTGCCT (site TGTATGTCTAG) | 0.116
77 | AGTCACACTTGGGTTCTAACCTGTTGCAG (site AGTCACACTCT) | 1.44
78 | AGTCACACTTGGGTTCTAACCTGTTGCAG (site TTGTGAGCTGC) | 0.153
79 | AGTCACACTTGGGTTCTAACCTGTTGCTG (site AGTCACACTCA) | 1.18
80 | AGTCACACTTGGGTTCTAACCTGTTGCTG (site AGTCACACTTA) | 0
81 | AGTCCACCTTGGGTTCTAACCTGTTGCCT (site AGTCCACCTAG) | 1.53
82 | AGTCCACCTTGGGTTCTAACCTGTTGCCT (site CGTCCACCTAG) | 0.166
83 | AGTCCACCTTGGGTTCTAACCTGTTGCCT (site GGTCCACCTAG) | 0.132
84 | AGTCCACCTTGGGTTCTAACCTGTTGCCT (site TGTCCACCTAG) | 0.49
85 | AGTCCGTCTTGGGTTCTAACCTGTTGCAT (site AGTCCGTCTAT) | 1.29
86 | AGTCCGTCTTGGGTTCTAACCTGTTGCAT (site CTAATAGCTTG) | 0.0391
